Source: ChEMBL document CHEMBL1155200, “Structure-activity relationships of the 1-amino-3-(1H-indol-1-yl)-3-phenylpropan-2-ol series of monoamine reuptake inhibitors” (Bioorg Med Chem Lett, 2009)

Key:
[1] = target: Sodium-dependent dopamine transporter (Homo sapiens) (UniProt Q01959); experiment: Displacement of [3H]WIN-35428 from human DAT expressed in CHO cells; type: cell-based; details: concentration not given here
[2] = target: Sodium-dependent serotonin transporter (Homo sapiens, UniProt P31645); type: cell-based, JAR
Sequence of Sodium-dependent serotonin transporter (P31645 whole entry): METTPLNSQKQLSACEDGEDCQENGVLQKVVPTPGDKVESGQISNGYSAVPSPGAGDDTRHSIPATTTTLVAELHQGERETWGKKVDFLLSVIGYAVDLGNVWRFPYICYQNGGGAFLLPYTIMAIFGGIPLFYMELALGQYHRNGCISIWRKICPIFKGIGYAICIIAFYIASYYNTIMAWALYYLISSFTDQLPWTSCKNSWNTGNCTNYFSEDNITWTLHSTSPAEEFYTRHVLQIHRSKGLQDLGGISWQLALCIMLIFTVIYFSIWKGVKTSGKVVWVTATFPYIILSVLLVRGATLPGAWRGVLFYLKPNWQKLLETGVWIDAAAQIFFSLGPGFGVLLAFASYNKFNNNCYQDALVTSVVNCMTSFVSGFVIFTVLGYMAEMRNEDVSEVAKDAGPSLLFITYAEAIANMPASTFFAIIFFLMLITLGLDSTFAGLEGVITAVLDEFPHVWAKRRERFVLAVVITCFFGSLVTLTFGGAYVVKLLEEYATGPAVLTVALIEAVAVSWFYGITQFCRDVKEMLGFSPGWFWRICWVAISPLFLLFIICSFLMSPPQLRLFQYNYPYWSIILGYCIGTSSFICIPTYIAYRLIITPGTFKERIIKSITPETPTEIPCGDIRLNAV
Description: Inhibition of human SERT expressed in JAR cells

[3] = species on record: Homo sapiens; experiment: Selectivity ratio, IC50 for human SERT to IC50 for human NET
[4] = target: Sodium-dependent noradrenaline transporter (Homo sapiens, UniProt P23975)
Sequence of Sodium-dependent noradrenaline transporter (P23975 whole entry): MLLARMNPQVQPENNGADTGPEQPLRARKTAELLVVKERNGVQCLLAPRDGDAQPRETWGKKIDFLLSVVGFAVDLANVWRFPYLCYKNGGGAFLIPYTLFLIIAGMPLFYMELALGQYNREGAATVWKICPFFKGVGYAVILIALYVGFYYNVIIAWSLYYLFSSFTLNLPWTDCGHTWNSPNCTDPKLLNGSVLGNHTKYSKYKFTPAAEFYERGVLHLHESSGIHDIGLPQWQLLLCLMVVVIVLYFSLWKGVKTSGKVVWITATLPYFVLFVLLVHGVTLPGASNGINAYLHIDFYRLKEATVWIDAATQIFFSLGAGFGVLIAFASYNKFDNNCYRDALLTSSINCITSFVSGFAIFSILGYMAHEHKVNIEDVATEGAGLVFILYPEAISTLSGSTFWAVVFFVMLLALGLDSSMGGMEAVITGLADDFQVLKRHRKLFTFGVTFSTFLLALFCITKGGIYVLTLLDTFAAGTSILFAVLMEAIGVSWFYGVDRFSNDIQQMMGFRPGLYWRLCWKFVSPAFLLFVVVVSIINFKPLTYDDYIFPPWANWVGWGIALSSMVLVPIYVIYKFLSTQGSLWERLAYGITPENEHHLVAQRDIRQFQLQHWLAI
Description: Inhibition of human NET expressed in MDCK-Net6 cells

[5] = Cmax in rat at 10 mg/kg, po after 8 hrs; type: ADME, organism-based; design: dose 10 mg/kg, route oral; details: in vivo
[6] = test system: Rattus norvegicus; experiment: Effect on temperature homeostasis in ovariectomized-induced thermoregulatory dysfunction telemetric Sprague-Dawley rat model assessed as duration of tail skin temperature reduction at 30 mg/kg, po; type: functional
[7] = test system: Rattus norvegicus; experiment: Effect on temperature homeostasis in ovariectomized-induced thermoregulatory dysfunction in telemetric Sprague-Dawley rat model assessed as duration of onset activity in tail skin temperature reduction at 30 mg/kg, po; type: functional
[8] = Plasma concentration in rat at 10 mg/kg, po after 8 hrs; type: ADME, organism-based; design: dose 10 mg/kg, route oral
[9] = test system: Rattus norvegicus; experiment: Effect on temperature homeostasis in ovariectomized-induced thermoregulatory dysfunction telemetric Sprague-Dawley rat model assessed as mean reduction in tail skin temperature at 30 mg/kg, po; type: functional
[10] = test system: Rattus norvegicus; experiment: Effect on temperature homeostasis in ovariectomized-induced thermoregulatory dysfunction in telemetric Sprague-Dawley rat model assessed as duration of onset activity in tail skin temperature reduction at 10 mg/kg, po; type: functional
[11] = test system: Rattus norvegicus; experiment: Effect on temperature homeostasis in ovariectomized-induced thermoregulatory dysfunction in telemetric Sprague-Dawley rat model assessed as duration of tail skin temperature reduction at 10 mg/kg, po; type: functional
[12] = test system: Rattus norvegicus; experiment: Effect on temperature homeostasis in ovariectomized-induced thermoregulatory dysfunction telemetric Sprague-Dawley rat model assessed as maximum reduction in tail skin temperature at 30 mg/kg, po; type: functional
[13] = Oral bioavailability in rat at 10 mg/kg; type: ADME, organism-based; details: in vivo
[14] = Ratio of AUC in brain to AUC in plasma in rat at 10 mg/kg, po and 2 mg/kg, iv; type: ADME, organism-based; details: read-out: Ratio AUC
[15] = test system: Rattus norvegicus; experiment: Effect on temperature homeostasis in ovariectomized-induced thermoregulatory dysfunction telemetric Sprague-Dawley rat model assessed as maximum reduction in tail skin temperature at 10 mg/kg, po; type: functional
[16] = test system: Rattus norvegicus; experiment: Effect on temperature homeostasis in ovariectomized-induced thermoregulatory dysfunction telemetric Sprague-Dawley rat model assessed as mean reduction in tail skin temperature at 10 mg/kg, po; type: functional

Sequence of Sodium-dependent dopamine transporter (Homo sapiens) (Q01959 whole entry): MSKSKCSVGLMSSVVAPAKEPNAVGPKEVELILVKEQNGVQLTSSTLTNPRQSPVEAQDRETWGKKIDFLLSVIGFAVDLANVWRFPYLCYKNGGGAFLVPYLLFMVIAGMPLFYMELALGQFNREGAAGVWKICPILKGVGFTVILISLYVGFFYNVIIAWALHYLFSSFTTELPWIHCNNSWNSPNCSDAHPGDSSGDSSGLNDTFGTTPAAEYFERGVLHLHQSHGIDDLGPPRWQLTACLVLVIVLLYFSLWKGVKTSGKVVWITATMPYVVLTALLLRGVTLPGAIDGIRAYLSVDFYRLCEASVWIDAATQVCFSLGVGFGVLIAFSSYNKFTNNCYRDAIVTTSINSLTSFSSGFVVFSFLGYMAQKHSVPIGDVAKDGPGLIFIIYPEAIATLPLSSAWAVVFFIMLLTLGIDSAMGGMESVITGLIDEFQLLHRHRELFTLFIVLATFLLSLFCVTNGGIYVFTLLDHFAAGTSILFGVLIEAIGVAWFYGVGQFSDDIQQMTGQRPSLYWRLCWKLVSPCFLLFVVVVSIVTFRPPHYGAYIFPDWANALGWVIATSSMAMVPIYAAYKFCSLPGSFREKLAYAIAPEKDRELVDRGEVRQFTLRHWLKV

Row | SMILES | inhibition [1] [%] | IC50 [2] [nM] | Ratio IC50 [3] | IC50 [4] [nM] | also measured
1 | CNC[C@@H](O)[C@H](c1cccc(F)c1)n1ccc2c(Br)cccc21 | 24 | 207 | 4 | 52 | 
2 | CNC[C@@H](O)[C@H](c1cccc(F)c1)n1ccc2cc(Br)ccc21 | 10 | 52 | 1 | 60 | 
3 | CNC[C@@H](O)[C@H](c1cccc(F)c1)n1ccc2ccc(Cl)cc21 | 9 | 865 | 9 | 92 | 
4 | CNC[C@@H](O)[C@H](c1ccc(C)cc1)n1ccc2ccccc21 | 0 | 398 | 3 | 117 | 
5 | CNCC[C@H](c1ccccc1)n1ccc2ccccc21 | 44 | 491 | 14 | 34 | 
6 | CNC[C@@H](O)[C@H](c1cccc(F)c1)n1ccc2ccc(Br)cc21 | 12 | 1000 | 8 | 124 | 
7 | CNC[C@@H](O)[C@H](c1cccc(F)c1)n1ccc2c(Cl)cccc21 | 12 | 221 | 3 | 64 | 
8 | CNC[C@@H](O)[C@H](c1cccc(F)c1)n1ccc2c(C)cccc21 | 4 | 228 | 15 | 15 | 
9 | CNC[C@@H](O)[C@H](c1cccc(F)c1)n1cc(C)c2ccccc21 | 8 | 343 | 86 | 4 | Cmax [5]: 87 ng/mL; Activity [6]: 10.5 h; Activity [7]: 0.5 h; concentration at 8 h [8]: 40 nM; Activity [9]: -3.8 °C; Activity [10]: 1 h; Time [11]: 5 h; Activity [12]: -7 °C; bioavailability [13]: 6%; Kp [14]: 3.5; Activity [15]: -2.3 °C; Activity [16]: -1.5 °C
10 | CNC[C@@H](O)[C@H](c1cccc(OC)c1)n1ccc2ccccc21 | 0 | 882 | 8 | 111 | 
11 | CNC[C@@H](O)[C@H](c1cccc(F)c1)n1ccc2cccc(F)c21 | 8 | 175 | 25 | 7 | 
12 | CNC[C@@H](O)[C@H](c1cccc(F)c1)n1ccc2cc(C)ccc21 | 0 | 48 | 2 | 21 | 
13 | CNC[C@@H](O)[C@H](c1ccccc1Cl)n1ccc2ccccc21 | 7 | 1330 | 4 | 304 | 
14 | CNC[C@@H](O)[C@H](c1cccc(C)c1)n1ccc2ccccc21 | 8 | 377 | 8 | 49 | 
15 | CNC[C@@H](O)[C@H](c1cccc(Cl)c1)n1ccc2ccccc21 | 20 | 554 | 34 | 16 | 
16 | CNC[C@@H](O)[C@H](c1ccccc1F)n1ccc2ccccc21 | 4 | 473 | 5 | 92 | 

Row | SMILES | inhibition [1] [%] | IC50 [2] [nM] | Ratio IC50 [3] | IC50 [4] [nM] | also measured
17 | CNC[C@@H](O)[C@H](c1cccc(F)c1)n1ccc2c(F)cccc21 | 3 | 417 | 26 | 16 | 
18 | CNC[C@@H](O)[C@H](c1ccc(F)cc1)n1ccc2ccccc21 | 11 | 1370 | 16 | 84 | 
19 | CNC[C@@H](O)[C@H](c1cccc(C(F)(F)F)c1)n1ccc2ccccc21 | 14 | 2180 | 40 | 54 | 
20 | CNC[C@@H](O)[C@H](c1ccccc1C)n1ccc2ccccc21 | 11 | 266 | 1 | 232 | 
21 | CNC[C@@H](O)[C@H](c1cccc(F)c1)n1ccc2cc(F)ccc21 | 9 | 78 | 4 | 22 | 
22 | CCc1cn([C@@H](c2cccc(F)c2)[C@H](O)CNC)c2ccccc12 | 0 | 834 | 83 | 10 | 
23 | CNCC[C@H](c1cccc(F)c1)n1ccc2ccccc21 | 52 | 14 | 0.2 | 91 | 
24 | CNC[C@@H](O)[C@H](c1ccc(Cl)cc1)n1ccc2ccccc21 | 16 | 748 | 1 | 527 | 
25 | CNC[C@@H](O)[C@H](c1cccc(F)c1)n1ccc2ccccc21 | 23 | 441 | 40 | 11 | 
26 | CNC[C@@H](O)[C@H](c1cccc(F)c1)n1ccc2cccc(Br)c21 | 0 | 113 | 5 | 21 | 
27 | CNC[C@@H](O)[C@H](c1cccc(Br)c1)n1ccc2ccccc21 | 13 | 547 | 39 | 14 | 
28 | CNC[C@@H](O)[C@H](c1cccc(F)c1)n1ccc2ccc(F)cc21 | 15 | 626 | 31 | 20 | 
29 | CNC[C@@H](O)[C@H](c1cccc(F)c1)n1ccc2cc(Cl)ccc21 | 6 | 79 | 1 | 60 | 
30 | CNC[C@@H](O)[C@H](c1cccc(F)c1)n1ccc2cccc(C)c21 | 7 | 527 | 29 | 18 | 
31 | CNC[C@@H](O)[C@H](c1cccc(F)c1)n1ccc2cccc(Cl)c21 | 0 | 48 | 2 | 21 | 
